# Test results from patent US9783521B2, “PDE10 inhibitors and related compositions and methods” (Omeros Corporation, priority 2008, dated 2017).
# Test system: C57BL/6 male mice
# Test: PCP-induced hyperactivity (psychostimulant-induced model of psychosis)
# Assay type: in vivo
# Conditions: 10 mg/kg i.p., ten minutes before PCP 5 mg/kg i.p.
# Protocol: Psychostimulant-induced hyperactivity is measured by injecting animals with PCP and monitoring the animals' activity levels in the VersaMax chambers (Accuscan Instruments, Columbus, Ohio) measuring 40×40 cm. Locomotor activity is detected by photobeam breaks as the animal crosses each beam. The animal is placed in the center of the field and left undisturbed for a period of time (20 min to 2 hr) to measure its spontaneous activity in a novel environment. Measurements used to assess locomotor activity include: horizontal activity, total distance traveled, vertical activity (rearing events—animal raises up on hindlimbs), rotation, stereotypy, and distance traveled in the center compared to total distance traveled (center: total distance ratio). The NMDA antagonist PCP induces psychosis-like conditions manifested as hyperactivity and increased stereotypic behavior. Known antipsychotics are able to reverse psychostimulant-induced hyperactivity and increased stereotypy.
# C57BL/6 male mice were injected with either compound (10 mg/kg) or vehicle via i.p. Ten minutes later, the mice were injected with PCP (5 mg/kg) via i.p. The mice were placed in the activity chambers 10 minutes after PCP injection and their locomotor activities were monitored by infrared beam breaks for 20 min.
# (§1) C57BL/6 male mice were administered either compound or vehicle via oral gavage. Fifteen minutes later, the mice were injected with PCP (5 mg/kg) via the i.p. route. The mice were placed in activity chambers 10 minutes after PCP injection, and their locomotor activity in the horizontal dimension was monitored by infrared beam breaks for 20 min (5 consecutive 4-minute intervals (INT) as indicated).
# as §1, with “Twenty-five” for “Fifteen”, “injection” for “injection,”
# C57BL/6 male mice were given either compound or vehicle by oral gavage. Twenty-five minutes later they were injected with PCP (5 mg/kg, i.p.). Ten minutes later, the mice were placed in activity chambers, and their locomotor activity in the horizontal dimension was monitored by infrared beam breaks for 20 min (5 consecutive 4-minute intervals (INT) as indicated).
# C57BL/6 male mice were co-injected with PCP (5 mg/kg) and either compound or vehicle via the i.p. route. Ten minutes later, the mice were placed in activity chambers and their locomotor activity in the horizontal dimension was monitored by infrared beam breaks for 20 min (5 consecutive 4-minute intervals (INT) as indicated).
# as §1, with “oral gavage. Twenty-five minutes later,” for “oral gavage. Fifteen minutes later,”, “placed in the activity chambers” for “placed in activity chambers”, “after PCP injection and their” for “after PCP injection, and their”
# C57BL/6 male mice were administered either compound or vehicle via oral gavage. Twenty-five minutes later, the mice were injected with PCP (5 mg/kg) via the i.p. route. The mice were placed in the activity chambers 10 minutes after injection and their locomotor activity in the horizontal dimension was monitored by infrared beam breaks for 20 min (5 consecutive 4-minute intervals as indicated).
row,Structure (SMILES),PCP-induced hyperactivity compared to vehicle
1,CCOC(C(=O)N/N=C/c1cc(OC)c(Br)c(OC)c1)c1cccc2ncccc12 (centres unmarked) [Compound 12-60],a similar result

# Same assay, conditions: dose not stated
row,Structure (SMILES),hyperactivity of mice in PCP-induced model of psychosis as compared to vehicle control
1,CCOC(C(=O)N/N=C/c1cc(OC)c(Br)c(OC)c1)c1cccc2ncccc12 (centres unmarked) [Compound 12-60],significantly reduces hyperactivity

# Target: T1, recombinant human PDE 10A1 (Homo sapiens, UniProt Q9Y233)
# T1 construct: made in house; host or cells: Sf9 insect cells, baculoviral system
# Test: PDE10 biochemical assay (two-step Thompson and Appleman method or SPA)
# Conditions: not given
# Protocol: After the appropriate incubation time, the reaction is terminated by heating. The mixture is then subjected to treatment with snake venom phosphatase. […] IC50 values can be calculated by performing the experiment at several concentrations using standard graphical means. A detailed description of the actual technique used for IC50 assays as set forth in following Examples.
# The phosphodiesterase (PDE) assay was performed using recombinant human PDE 1A3, 2A3, 3 catalytic region, 4 catalytic region, 5 catalytic region, 7A, 8A, 9A2, 10A1 and 11A1 enzymes expressed in a baculoviral system using Sf9 cells. PDE activity was measured using a modification of the two-step method of Thompson and Appleman described above which was adapted for 96 well plate format. […] Reactions were initiated with enzyme and incubated with (^3H)-substrate and substance for 20 minutes at 30° C. The reaction was terminated by denaturing the enzyme (heating the reaction to 70° C. for 2 minutes). The reaction was then cooled at 4° C. for 10 minutes before the addition of snake venom (Crotalus atrox, 0.2 mg/ml) for 10 minutes at 30° C., thus allowing non-specific hydrolysis of the tritiated substrate. Separation of the remaining unhydrolysed cyclic nucleotide was achieved by a batch binding of the mixture to activated Dowex (200 μl) anion exchange resin. The anion exchange resin bound the charged nucleotides, leaving only hydrolysed (^3H) substrate in the soluble fraction. The soluble fraction (50 μl) was then added to microscint-20 (200 μl) and counted on a Top Count Plate reader. Radioactivity units were plotted against inhibitor concentration and IC50 values obtained using Graph Pad Prism software.
# Alternatively, phosphodiesterase activity was measured by scintillation proximity assay (SPA) with [^3H]-cGMP as substrate. Purified PDE10 was diluted and stored in 25 mM Tris-Cl (pH 8.0)/100 mM NaCl/0.05% Tween 20/50% glycerol/3 mM DTT. Assays contained (final concentrations): 50 mM Tris-Cl (pH 7.5)/8.3 mM MgCl2/1.7 mM EGTA/0.5 mg/ml BSA/5% DMSO and 2 ng PDE10 in a final volume of 0.1 mL. Inhibition was evaluated at 8 concentrations in duplicate. Reactions were initiated by addition of enzyme and were terminated after 20 minutes at 30° C. by the addition of 50 μl of SPA beads containing Zn^++. The mixture was shaken, allowed to settle for 3 hours, and counted in a Wallac plate counter. Results (net cpm) were fitted to a four parameter logistic model using Excel Solver®.
# T1 sequence (Q9Y233 1-779 isoform Q9Y233-1): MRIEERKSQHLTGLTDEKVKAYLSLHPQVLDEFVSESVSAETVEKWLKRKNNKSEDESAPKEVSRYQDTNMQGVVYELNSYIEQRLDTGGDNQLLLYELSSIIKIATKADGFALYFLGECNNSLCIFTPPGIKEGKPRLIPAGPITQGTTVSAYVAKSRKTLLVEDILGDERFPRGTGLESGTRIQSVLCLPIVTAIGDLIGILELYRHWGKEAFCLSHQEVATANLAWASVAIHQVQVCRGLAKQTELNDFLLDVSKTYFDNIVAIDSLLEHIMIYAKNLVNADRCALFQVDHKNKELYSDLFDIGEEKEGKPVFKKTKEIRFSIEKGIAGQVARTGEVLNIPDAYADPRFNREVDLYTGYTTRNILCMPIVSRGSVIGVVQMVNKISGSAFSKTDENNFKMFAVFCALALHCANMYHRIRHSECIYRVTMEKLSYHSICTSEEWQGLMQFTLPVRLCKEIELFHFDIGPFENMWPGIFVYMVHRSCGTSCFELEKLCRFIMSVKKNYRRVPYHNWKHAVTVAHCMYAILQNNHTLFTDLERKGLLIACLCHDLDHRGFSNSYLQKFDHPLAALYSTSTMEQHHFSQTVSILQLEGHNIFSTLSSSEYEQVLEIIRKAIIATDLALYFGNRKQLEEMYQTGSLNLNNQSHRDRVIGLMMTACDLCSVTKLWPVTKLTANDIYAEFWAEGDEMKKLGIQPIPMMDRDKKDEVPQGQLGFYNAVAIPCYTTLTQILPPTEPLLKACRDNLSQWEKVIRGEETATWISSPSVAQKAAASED
row,Structure (SMILES),IC50 [µM]
1,"COc1ccc(/C=N/N(C)C(=O)C(OC)c2ccccc2)cc1OC (centres unmarked) [Compound 12-70, (E)-N′-(3,4-Dimethoxybenzylidene)-2-methoxy-N-methyl-2-phenylacetohydrazide]",≤ 1

# Same assay, conditions: PDE10 inhibition; read-out: IC50
row,Structure (SMILES),IC50 [µM]
1,COc1ccc(/C=N/NC(=O)C(OC)c2ccc3ccccc3c2)cc1OC1CCCC1 (centres unmarked) [Compound 12-18],≤ 1
2,COc1ccc(C(OC)C(=O)N/N=C/c2ccc(OC)c(OC)c2)cc1 (centres unmarked) [Compound 12-19],≤ 1
3,COc1cc(/C=N/NC(=O)C(OC)c2ccccc2)ccc1C (centres unmarked) [Compound 12-20],≤ 1
4,COc1cc(/C=N/NC(=O)C(OC)c2ccc(Cl)cc2)ccc1C#N (centres unmarked) [Compound 12-22],≤ 1
5,COc1ccc(/C=N/NC(=O)C(OC)c2ccc3ccccc3c2)cc1OC (centres unmarked) [Compound 12-23],≤ 1
6,COc1cc(/C=N/NC(=O)C(OC)c2ccccc2)cc(OC)c1O (centres unmarked) [Compound 12-24],≤ 1
7,COc1cc(/C=N/NC(=O)C(OC)c2ccccc2)cc(OC)c1 (centres unmarked) [Compound 12-25],≤ 1
8,CCOc1ccc(/C=N/NC(=O)C(OC)c2ccccc2)cc1OCC (centres unmarked) [Compound 12-26],≤ 1
9,COc1cc(/C=N/NC(=O)C(Oc2ccccc2)c2ccccc2)cc(OC)c1OC (centres unmarked) [Compound 12-41],≤ 1
10,COc1cc(/C=N/NC(=O)C(OC)c2cc3ccccc3s2)cc(Cl)c1OC (centres unmarked) [Compound 12-42],≤ 1
11,COCCOC(C(=O)N/N=C/c1cc(OC)c(Br)c(OC)c1)c1ccc2ccccc2c1 (centres unmarked) [Compound 12-43],≤ 1
12,COCCOC(C(=O)N/N=C/c1cc(OC)c(OC)c(OC)c1)c1ccc2ccccc2c1 (centres unmarked) [Compound 12-45],≤ 1
13,COCCOC(C(=O)N/N=C/c1cc(Br)c(OC)c(OC)c1)c1ccc2ccccc2c1 (centres unmarked) [Compound 12-48],≤ 1
14,COc1cc(/C=N/NC(=O)C(OC)c2ccnc3ccccc23)cc(OC)c1OC (centres unmarked) [Compound 12-56],≤ 1
15,COc1cc(/C=N/NC(=O)C(OC)c2ccnc3ccccc23)cc(Br)c1OC (centres unmarked) [Compound 12-58],≤ 1
16,CCOC(C(=O)N/N=C/c1cc(OC)c(OC)c(OC)c1)c1cccc2ncccc12 (centres unmarked) [Compound 12-59],≤ 1
17,CCOC(C(=O)N/N=C/c1cc(OC)c(Br)c(OC)c1)c1cccc2ncccc12 (centres unmarked) [Compound 12-60],≤ 1
18,COc1cc(/C=N/NC(=O)C(OC)c2cnc3ccccc3c2)cc(OC)c1OC (centres unmarked) [Compound 12-61],≤ 1
19,COc1cc(/C(C)=N/NC(=O)C(OC)c2ccccc2)cc(OC)c1OC (centres unmarked) [Compound 12-69],≤ 1
20,CCC(C(=O)N/N=C/c1ccc(OC)c(OC)c1)c1ccccc1 (centres unmarked) [Compound 12-71],≤ 1
21,COc1cc(Cl)c(/C=N/NC(=O)C(OC)c2ccc3c(c2)OCCO3)cc1OC (centres unmarked) [Compound 12-83],≤ 1
22,CCOC(C(=O)N/N=C/c1cc(OC)c(Br)c(OC)c1)c1ccc2c(c1)OCCN2C (centres unmarked) [Compound 12-84],≤ 1

row,Structure (SMILES),IC50 [µM]
1,CCOC(C(=O)N/N=C/c1cc(Cl)c(OC)c(OC)c1)c1ccc2c(c1)OCCN2C (centres unmarked) [Compound 12-85],≤ 1
2,CCOC(C(=O)N/N=C/c1cc(Br)c(OC)c(OC)c1)c1ccc2c(c1)OCCN2C (centres unmarked) [Compound 12-86],≤ 1
3,CCOC(C(=O)N/N=C/c1cc(OC)c(Br)c(OC)c1)c1ccc2c(c1)OCCO2 (centres unmarked) [Compound 12-87],≤ 1
4,CCOC(C(=O)N/N=C/c1cc(OC)c(OC)c(OC)c1)c1ccc2c(c1)OCCO2 (centres unmarked) [Compound 12-88],≤ 1
5,COc1cc(/C=N/NC(=O)Cc2ccccc2)cc(OC)c1OC [Compound 12-89],≤ 1
6,COc1ccc(/C=N/NC(=O)Cc2ccc(OC)c(OC)c2)cc1OC [Compound 12-90],≤ 1
7,COc1cc(/C=N/NC(=O)C(OCCN(C)C)c2ccc3c(c2)OCO3)cc(OC)c1Br (centres unmarked) [Compound 12-109],≤ 1
8,COc1cc(/C=N/NC(=O)C(OC)c2ccc3c(c2)OCO3)cc(Br)c1OC (centres unmarked) [Compound 12-116],≤ 1
9,CCOC(C(=O)N/N=C/c1cc(OC)c(Cl)c(OC)c1)c1cccc2ncccc12 (centres unmarked) [Compound 12-119],≤ 1
10,CCOC(C(=O)N/N=C/c1cc(OC)cc(OC)c1)c1cccc2ncccc12 (centres unmarked) [Compound 12-120],≤ 1
11,COc1cc(/C=N/NC(=O)C(OC)c2cccc(N(C)C)c2)cc(Br)c1OC (centres unmarked) [Compound 12-122],≤ 1
12,COc1cc(/C=N/NC(=O)C(OCCN(C)C)c2ccc3ccccc3c2)cc(OC)c1Br (centres unmarked) [Compound 12-123],≤ 1
13,COc1cc(/C=N/NC(=O)C(OC)c2cccc(N(C)C)c2)cc(OC)c1O (centres unmarked) [Compound 12-124],≤ 1
14,COc1cc(/C=N/NC(=O)C(OC)c2ccc(N3CCCC3)cc2)cc(OC)c1Cl (centres unmarked) [Compound 12-126],≤ 1
15,CCOC(C(=O)N/N=C/c1cc(OC)c(C)c(OC)c1)c1cccc2c1OCCO2 (centres unmarked) [Compound 12-128],≤ 1
16,CCOC(C(=O)N/N=C/c1cc(Br)c(OC)c(OC)c1)c1cccc2c1OCCO2 (centres unmarked) [Compound 12-129],≤ 1
17,CCOC(C(=O)N/N=C/c1cc(OC)c(OC)c(OC)c1)c1cccc2c1OCCO2 (centres unmarked) [Compound 12-130],≤ 1
18,CCOC(C(=O)N/N=C/c1cc(OC)c(Br)c(OC)c1)c1cccc2c1OCCO2 (centres unmarked) [Compound 12-131],≤ 1
19,CCOC(C(=O)N/N=C/c1cc(Br)c(OC)c(OC)c1)c1ccc2c(c1)OCCO2 (centres unmarked) [Compound 12-135],≤ 1
20,COc1cc(/C=N/NC(=O)Cc2ccc(N3CCOCC3)cc2)cc(OC)c1Br [Compound 12-139],≤ 1
21,COc1cc(/C(C)=N/NC(=O)C(OC)c2ccc(-n3cccn3)cc2)cc(OC)c1OC (centres unmarked) [Compound 12-144],≤ 1
22,COc1ccc(/C=N/NC(=O)C(OC)c2ccc(-n3cccn3)cc2)cc1OC (centres unmarked) [Compound 12-155],≤ 1
